# “Also recorded” adds a separate entry of the source.
# Tested on: Individuals with a diagnosis of probable AD
# Assay: ADCS anti-inflammatory clinical trial, 1-year exposure; MMSE and CDR-SB outcomes by treatment arm and proinflammatory endophenotype
# Type: in vivo, human
# Conditions: for participants with mild decline in MMSE (number) / participants with mild decline in MMSE (percent of arm): MMSE decline of 1-2 points over 12 mo; for participants who declined 3 or more points on MMSE (number) / participants who declined 3 or more points on MMSE (percent of arm): over 12-months (adverse responders); for participants with improvement in MMSE scores over 12-months (number) / participants with improvement in MMSE scores over 12-months (percent of arm): responders = improved MMSE >=1 point over 12 mo; for MMSE Change, mean (SD): change = screening − 12-month, positive = decline
# Text: Data source. Banked plasma samples from the Alzheimer's Disease Cooperative Studies (ADCS) anti-inflammatory clinical trial were used. […] This was a multicenter, randomized, double-blind, placebo-controlled parallel group trial with 1-year exposure to study medications across forty ambulatory treatment centers affiliated with the ADCS. […] Inclusion criteria were as follows: age 50 or older, MMSE score of 13-26 and diagnosis of probable AD. Stable use of cholinesterase inhibitors was allowed.
# Statistical Analyses. Biomarker data were transformed using the Box-Cox transformation per previously published protocols, relevant portions incorporated herein by reference. Support vector machine (SVM) analyses were utilized to build the proteomic profiles simultaneously classifying all outcome groups in R per the inventors previously published methods, relevant portions incorporated herein by reference. SVM analyses are capable of simultaneously taking into account large volume data to generate an overall profile (e.g., over and under-expression of select proteins) that most accurately classifies multiple outcomes rather than only binary outcomes. MMSE change scores were utilized as the outcome variables for the study (i.e. MMSE screening−MMSE 12-month follow-up=MMSE change). Participants were classified into four groups based on change in MMSE scores over 12-months: responders (improved MMSE scores of >=1 point over 12 mo), stable (no change in MMSE over 12 months), non-responders (MMSE decline of 1-2 points over 12 mo) or adverse responders (MMSE decline of 3 or more points over 12 mo). To build inflammatory profiles of treatment response, group status (i.e. treatment response) was utilized as the outcome variable in SVM models with pre-randomization inflammatory proteins as the predictor variable. In order to determine if the proinflammatory profile of treatment response was drug-specific, analyses were conducted utilizing the total sample as well as within specific study treatment arms.
# Next, MMSE change scores were dichotomized into improvement versus stable or decline over the 12-mo period.
# [1] = within treatment arm, no change in MMSE over 12 months
# [2] = High proinflammatory endophenotype (n = 8)
# [3] = Low proinflammatory endophenotype (n = 7)
# [4] = Middle proinflammatory endophenotype (n = 36)
smiles,measurement,setting,value
"CS(=O)(=O)c1ccc(C2=C(c3ccccc3)C(=O)OC2)cc1 [Rofecoxib, rofecoxib]",participants with mild decline in MMSE (number),within treatment arm,14
same,participants with mild decline in MMSE (percent of arm),within treatment arm,25%
same,participants who remained stable on MMSE (number),[1],8
same,participants who remained stable on MMSE (percent of arm),[1],15%
same,participants who declined 3 or more points on MMSE (number),within treatment arm,23
same,participants who declined 3 or more points on MMSE (percent of arm),within treatment arm,42%
same,participants with improvement in MMSE scores over 12-months (number),within treatment arm,9
same,participants with improvement in MMSE scores over 12-months (percent of arm),within treatment arm,16%
"COc1ccc2cc([C@H](C)C(=O)O)ccc2c1 [Naproxen, naproxen]","CDR-SB 12 mo, mean (SD)",[2],5.36 (3.0)
same,"CDR-SB Change, mean (SD)",[2],0.7 (2.5)
same,"MMSE 12 mo, mean (SD)",[2],21.2 (5.3)
same,"MMSE Change, mean (SD)","High proinflammatory endophenotype (n = 8), p = 0.02 vs placebo high group",−0.13 (3.1)
same,"CDR-SB 12 mo, mean (SD)",[3],9.8 (4.1)
same,"CDR-SB Change, mean (SD)",[3],−2.5 (2.1)
same,"MMSE 12 mo, mean (SD)",[3],16.1 (5.5)
same,"MMSE Change, mean (SD)",[3],1.5 (3.1)
same,"CDR-SB 12 mo, mean (SD)",[4],8.4 (4.1)
same,"CDR-SB Change, mean (SD)",[4],−2.6 (2.5)
same,"MMSE 12 mo, mean (SD)",[4],16.5 (6.4)
same,"MMSE Change, mean (SD)",[4],4.2 (4.6)
same,decline / change in MMSE scores over a 12 mo period as compared to the placebo group,"high end of the proinflammatory endophenotype (CRP>1015.52 & TNFα>0.64), F[1,6]=8.2, p=0.03",significantly reduced decline; also recorded: significantly better
same,average score of dichotomized MMSE change (improvement versus stable or decline),"high proinflammatory endophenotype, 12-mo period, Placebo group 0.25",0.63
same,patients improved on MMSE (dichotomized),"high proinflammatory endophenotype, 12-mo period, Placebo group 25%",63%
same,improvement in MMSE scores over 12 months as compared to the Placebo group,"high proinflammatory endophenotype, age, gender, education, APOE4 as covariates, F[1,6]=10.9, p=0.02",significant improvement
same,cognitive course (MMSE) in the low end of the proinflammatory endophenotype,"low end, CRP and TNFα cut-scores of the naproxen-specific algorithm",trend towards those in the low end to experience significant decline
same,participants with mild decline in MMSE (number),within treatment arm,10
same,participants with mild decline in MMSE (percent of arm),within treatment arm,20%
same,participants who declined 3 or more points on MMSE (number),within treatment arm,26
same,participants who declined 3 or more points on MMSE (percent of arm),within treatment arm,51%
same,participants with improvement in MMSE scores over 12-months (number),within treatment arm,10
same,participants with improvement in MMSE scores over 12-months (percent of arm),within treatment arm,20%
